Converted amounts (≈) assume the structure as drawn. “And” between values parts separate entries of the source, which are not always exact repeats. Identical values can stand only once. Like-named read-outs stand apart in the source and are kept apart here.
What was measured:
M. tuberculosis EthR = M. tuberculosis EthR (Mycobacterium tuberculosis, UniProt P9WMC1); experiment: Surface plasmon resonance assay of EthR binding to ethA promoter DNA; settings: for LE (ligand efficiency): ligand efficiency for EthR inhibition
Procedure: The surface plasmon resonance (SPR) assay was performed on a BIAcore T100 with a protocol similar to what was previously described (Surade et al., [2014]). […] For the initial screening a single run was performed for each compound. A 2 μM EthR solution was then incubated individually with each of the compounds at 100 μM, in 2 mM MgCl2, 10 mM TRIS/HCL pH 7.5, 200 mM NaCl, 0.1 mM EDTA, and 2% DMSO and flowed over the chip at 20 μl/min for 120 s. For dissociation 150 s were given using the same flow rate. Binding was determined by subtracting the response of the control channel from the experimental channel at steady-state. Regeneration of the chip was performed between samples by flowing 0.03% SDS in running buffer for 60 s at 20 μl/min. […] Data were analyzed in Prism 5 (Graphpad software) and IC50 were calculated using a non-linear regression model. Dose response experiments were performed in triplicate.

[1] = test system: Mycobacterium tuberculosis H37Rv; parameters: method as in Ballell et al., 2013; settings: M. tuberculosis whole cell; ref Ballell et al., 2013; cited from earlier work
InhA = InhA (Mycobacterium tuberculosis, UniProt P9WGR1); experiment: InhA spectrophotometric enzymatic assay (NADH oxidation, 2-trans-octanoyl-CoA); type: biochemical; settings: compound at 100 μM, 100 nM InhA, triplicate
Procedure: InhA activity was assessed by a spectrophotometric assay that followed the oxidation of NADH at λ = 340 nm in the presence of 2-trans-octanoyl-CoA. Compounds were dissolved in 100% DMSO. The enzyme reaction contains 30 mM PIPES pH 7.5, 50 mM NaCl, 1% (v/v) DMSO and 0.1 mM EDTA. InhA (100 nM) was pre-incubated for 10 min at room temperature with 0.25 mM NADH and compounds at a final concentration of 100 μM in 150 μl reaction volume. The reaction is started by the addition of 2-trans-octanoyl-CoA at a final concentration of 1.5 mM, prepared as described previously (He et al., [2006]). The reactions were followed for 20 min using a spectrophotometer plate reader (CLARIOstar—BMG LABTECH). Inhibition percentage was calculated based on the initial rates of reaction. All experiments were performed in triplicate.

[2] = IC50, SPR dose response 0.78-100 μM, triplicate, table head prints no unit, μM
[3] = inhibition of EthR binding to ethA promoter DNA
[4] = SPR dose response 0.78-100 μM, triplicate, table head prints no unit, μM, read-out: IC50

Chain of M. tuberculosis EthR (P9WMC1 whole entry, looked up): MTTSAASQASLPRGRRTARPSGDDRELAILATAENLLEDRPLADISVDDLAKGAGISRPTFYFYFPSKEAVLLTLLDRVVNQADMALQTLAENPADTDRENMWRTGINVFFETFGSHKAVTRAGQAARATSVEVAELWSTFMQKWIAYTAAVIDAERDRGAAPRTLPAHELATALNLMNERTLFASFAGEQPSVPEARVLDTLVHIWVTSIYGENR
Chain of InhA (P9WGR1 whole entry, looked up): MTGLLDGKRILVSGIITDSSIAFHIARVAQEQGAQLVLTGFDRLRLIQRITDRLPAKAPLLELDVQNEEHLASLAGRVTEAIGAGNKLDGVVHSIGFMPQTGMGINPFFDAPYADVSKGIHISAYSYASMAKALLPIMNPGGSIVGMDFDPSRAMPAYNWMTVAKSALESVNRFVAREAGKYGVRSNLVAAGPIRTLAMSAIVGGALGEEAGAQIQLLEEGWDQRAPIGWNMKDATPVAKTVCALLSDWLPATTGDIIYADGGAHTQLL

Row | Structure (SMILES) | inhibition at 100 µM (M. tuberculosis EthR) | IC50 (M. tuberculosis EthR; [2]) | LE (ligand efficiency) (M. tuberculosis EthR) | MIC [1] | also measured
1 | O=C(Cc1ccc(F)cc1)Nc1nc(-c2ccccn2)cs1 [Compound 2] | 100% | 9.9 µM | 0.31 | 9.3 µM (≈ 2.91 µg/mL) | –
2 | O=C(C1CCN(c2nnc(-n3cccc3)s2)CC1)N1CCC(Cc2ccccc2)CC1 [Compound 3] | 100% | 3.9 µM | 0.24 | 4.2 µM (≈ 1.83 µg/mL) | –
3 | N=C(Nc1nc(-c2ccccn2)cc2ccccc12)c1cccc(Cl)c1 [GSK381407a] | – | – | – | – | SPR Inhibition (%) (M. tuberculosis EthR; [3]): 59%
4 | Fc1ccc2nc(Nc3nc(-c4ccccn4)cs3)sc2c1 [Compound 6] | 97% | 22 µM | 0.30 | 2.3 µM (≈ 0.755 µg/mL) | –
5 | Br.CC1(C)NC(N)=NC(=N)N1OCCCOc1ccc(Cl)cc1Cl [BRL-51091am] | – | – | – | – | SPR Inhibition (%) (M. tuberculosis EthR; [3]): 41%
6 | O=C(COc1cccc(F)c1)Nc1nc(-c2ccccn2)cs1 [Compound 7] | 93% | – | 0.26 | – | IC50 (M. tuberculosis EthR; [4]): 50 µM
7 | c1ccc(-c2csc(Nc3nc4cc5c(cc4s3)OCO5)n2)nc1 [Compound 4] | – | – | 0.28 | 2.7 µM (≈ 0.957 µg/mL) | IC50 (M. tuberculosis EthR; [4]): ~13 µM and 13 µM; Inhibition (100 μM) (%) (M. tuberculosis EthR; SPR, inhibition of EthR binding to DNA, compound at 100 μM, 2 μM EthR, single run): 100%
8 | O=C(NC1=NCCS1)c1sc2cc(F)ccc2c1Cl [Compound 1] | 100% | ~12 µM and 12 µM | 0.35 | 8.6 µM (≈ 2.71 µg/mL) | –
9 | CSc1ccc(C(=O)Nc2nc(-c3ccccn3)cs2)cc1 [Compound 10] | 74% | – | – | 8.7 µM (≈ 2.85 µg/mL) | –
10 | Clc1ccc(Nc2nc(-c3ccccn3)cs2)nc1 [Compound 5] | 99% | – | – | 5.9 µM (≈ 1.7 µg/mL) | –
11 | CCCCS(=O)(=O)Nc1ccc2cnn(C)c2c1 [GSK3011724a] | – | – | – | – | SPR Inhibition (%) (M. tuberculosis EthR; [3]): 28%
12 | Nc1ccccc1Nc1ccc2c(c1)OCO2 [Compound 12] | 67% | – | – | 1.8 µM (≈ 0.411 µg/mL) | IC50 (M. tuberculosis EthR; SPR IC50 (µM), inhibition of EthR binding to ethA promoter DNA): > 100 µM
13 | CCc1ccc(Nc2nnc(SCc3cc(C)on3)s2)cc1 [Compound 8] | 92.8% | – | – | 2.8 µM (≈ 0.931 µg/mL) | inhibition at 100 µM (InhA): > 40%
